The record followed here is patent US7351728B2, “Oxazolyl-aryloxyacetic acid derivatives and their use as PPAR agonists” (Eli Lilly and Company, priority 2003, dated 2008).

The subject of this assay is HuapoAI transgenic mice. Kind of assay: Evaluation of triglyceride and cholesterol level in HuapoAI transgenic mice. The assay is classed as in vivo. Conditions: Mus musculus, 168 h, 30 mg/kg daily oral gavage 7 days; for change in vivo at 30 mg/kg: percent increase in FPLC HDLc area under the curve; for inhibition in vivo at 30 mg/kg: serum, male human apoAI transgenic mice, read-out: % Triglyceride Reduction. The method, then:
Five to six week old male mice, transgenic for human apoAI [C57Bl/6-tgn(apoa1)lrub, Jackson Laboratory, Bar Harbor, Me.] were housed five per cage (10″×20″×8″ with aspen chip bedding) with food (Purina 5001) and water available at all times. After an acclimation period of 2 weeks, animals were individually identified by ear notches, weighed, and assigned to groups based on body weight. Beginning the following morning, mice were dosed daily by oral gavage for 7 days using a 20 gauge, 1½″ curved disposable feeding needle (Popper & Sons). Treatments were test compounds (30 mg/kg), a positive control (fenofibrate, 100 mg/kg) or vehicle [1% carboxymethylcellulose (w/v)/0.25% Tween80 (w/v); 0.2 ml/mouse]. Prior to termination on day 7, mice were weighed and dosed. Three hours after dosing, animals were anesthetized by inhalation of isoflurane (2-4%; Abbott Laboratories, Chicago, Ill.) and blood obtained via cardiac puncture (0.7-1.0 ml). Whole blood was transferred to serum separator tubes (Vacutainer SST), chilled on ice, and permitted to clot. Serum was obtained after centrifugation at 4° C. and frozen until analysis for triglycerides, total cholesterol, compound levels, and serum lipoprotein profile by fast protein liquid chromatography (FPLC) coupled to an inline detection system. After sacrifice by cervical dislocation, the liver, heart and epididymal fat pads were excised and weighed.
The animals dosed with vehicle had average triglycerides values of 60-80 mg/dl, which were reduced by the positive control fenofibrate (33-58 mg/dl with a mean reduction of 37%). The animals dosed with vehicle had average total serum cholesterol values of 140-180 mg/dl, which were increased by fenofibrate (190-280 mg/dl, with a mean elevation of 41%). […] Fenofibrate increased the amount of HDLc (68-96 v-sec with a mean percent increase of 48%).
Glucose was measured colorimetrically using commercially purchased reagents (Sigma #315-500). According to the manufacturers, the procedures were modified from published work (McGowan, M. W., Artiss, J. D., Strandbergh, D. R. & Zak, B. Clin Chem, 20:470-5 (1974) and Keston, A. Specific colorimetric enzymatic analytical reagents for glucose. Abstract of papers 129th Meeting ACS, 31C (1956).); and depend on the release of a mole of hydrogen peroxide for each mole of analyte, coupled with a color reaction first described by Trinder (Trinder, P. Determination of glucose in blood using glucose oxidase with an alternative oxygen acceptor. Ann Clin Biochem, 6:24 (1969)). The absorbance of the dye produced is linearly related to the analyte in the sample. The assays were further modified in our laboratory for use in a 96 well format. Standards (Sigma #339-11, Sigma #16-11, and Sigma #CC0534 for glucose triglycerides and total cholesterol, respectively), quality control plasma (Sigma # A2034), and samples (2 or 5 μl/well) were measured in duplicate using 200 μl of reagent. An additional aliquot of sample, pipetted to a third well and diluted in 200 μl water, provided a blank for each specimen. Plates were incubated at room temperature (18, 15, and 10 minutes for glucose, triglycerides and total cholesterol, respectively) on a plate shaker (DPC Micormix 5) and absorbance read at 500 nm (glucose and total cholesterol) or 540 nm (triglycerides) on a plate reader (Wallac Victor 1420). Sample absorbances were compared to a standard curve (100-800, 10-500, and 100-400 mg/dl for glucose, triglycerides and total cholesterol, respectively). Values for the quality control sample were always within the expected range and the coefficient of variation for samples was below 10%. All samples from an experiment were assayed at the same time to minimize inter-assay variability.
Serum lipoproteins were separated and cholesterol quantitated with an in-line detection system. Sample was applied to a Superose® 6 HR 10/30 size exclusion column (Amersham Pharmacia Biotech) and eluted with phosphate buffered saline-EDTA at 0.5 ml/min. […]

On to `Cc1oc(-c2cccc(Br)c2)nc1CCOc1ccc(OC(C)(C)C(=O)O)cc1` [Example 9A, 2-(4-{2-[2-(3-Bromophenyl)-5-methyloxazol-4-yl]ethoxy}phenoxy)-2-methylpropionic acid], for which the change in vivo at 30 mg/kg is 118% and the inhibition in vivo at 30 mg/kg was determined as 67.1%.

Regarding `CCc1ccc(-c2nc(CCOc3ccc(OC(C)(C)C(=O)O)cc3)c(C)o2)cc1` [Example 13, 2-(4-{2-[2-(4-Ethylphenyl)-5-methyloxazol-4-yl]ethoxy}phenoxy)-2-methylpropionic acid], the change in vivo at 30 mg/kg was 133% and the inhibition in vivo at 30 mg/kg worked out at 44.8%.

Consider `Cc1cc(OCCc2nc(-c3ccccc3)oc2C)ccc1OC(C)(C)C(=O)O` [Example 24, 2-Methyl-2-{2-methyl-4-[2-(5-methyl-2-phenyloxazol-4-yl)ethoxy]phenoxy}propionic acid], for which the change in vivo at 30 mg/kg was found to be 61% and the inhibition in vivo at 30 mg/kg was determined as 75%.

Consider `Cc1oc(-c2ccccc2)nc1CCOc1ccc(OC(C)(C)C(=O)O)cc1` [Example 1, 2-Methyl-2-{4-[2-(5-methyl-2-phenyloxazol-4-yl)ethoxy]phenoxy}propionic acid], for which the change in vivo at 30 mg/kg was found to be 77% and the inhibition in vivo at 30 mg/kg came to 79.2%.

Consider `CCc1cccc(-c2nc(CCOc3ccc(OC(C)(C)C(=O)O)cc3)c(C)o2)c1` [Example 12, 2-(4-{2-[2-(3-Ethylphenyl)-5-methyloxazol-4-yl]ethoxy}phenoxy)-2-methylpropionic acid], for which the change in vivo at 30 mg/kg came out at 180% and the inhibition in vivo at 30 mg/kg came to 74.3%.

In the case of `Cc1oc(-c2ccccc2)nc1CCOc1ccc(OC(C)(C)C(=O)O)c(Cc2ccccc2)c1` [Example 32, 2-{2-Benzyl-4-[2-(5-methyl-2-phenyloxazol-4-yl)ethoxy]phenoxy}-2-methylpropionic acid], the change in vivo at 30 mg/kg amounted to 20%.

Take `Cc1oc(-c2ccccc2)nc1CCOc1ccc(OC(C)(C)C(=O)O)c2c1CCCC2` [Example 38, 2-Methyl-2-{4-[2-(5-methyl-2-phenyl-oxazol-4-yl)-ethoxy]-5,6,7,8-tetrahydro-naphthalen-1-yloxy}-propionic acid]: the change in vivo at 30 mg/kg came to 86% and the inhibition in vivo at 30 mg/kg came to 39%.

Consider `CCCc1cc(OCCc2nc(-c3ccccc3)oc2C)ccc1OCC(=O)O` [Example 26, {4-[2-(5-methyl-2-phenyl-oxazol-4-yl)ethoxy]-2-propylphenoxy}acetic acid], for which the change in vivo at 30 mg/kg stood at 19% and the inhibition in vivo at 30 mg/kg is 25.5%.

In the case of `Cc1oc(-c2ccccc2)nc1CCOc1ccc(OC(C)(C)C(=O)O)c(CC(C)C)c1` [Example 30C, 2-{2-Isobutyl-4-[2-(5-methyl-2-phenyloxazol-4-yl)ethoxy]phenoxy}-2-methylpropionic acid], the change in vivo at 30 mg/kg was 31% and the inhibition in vivo at 30 mg/kg was determined as 6.2%.

Compound `Cc1oc(-c2ccccc2)nc1CCOc1ccc(OC(C)(C)C(=O)O)c(CCc2ccccc2)c1` [Example 30J, 2-Methyl-2-{4-[2-(5-methyl-2-phenyloxazol-4-yl)ethoxy]-2-phenethylphenoxy}propionic acid] had a change in vivo at 30 mg/kg of 77%.

Take `CCCc1cc(OCCc2nc(-c3ccccc3)oc2C)ccc1OC(C)(C)C(=O)O` [Example 26A, 2-Methyl-2-{4-[2-(5-methyl-2-phenyloxazol-4-yl)ethoxy]-2-propylphenoxy}propionic acid]: the change in vivo at 30 mg/kg is 43% and the inhibition in vivo at 30 mg/kg was 35.9%.

With `Cc1oc(-c2ccccc2)nc1CCOc1ccc(OC(C)(C)C(=O)O)c2ccccc12` [Example 37, 2-Methyl-2-{4-[2-(5-methyl-2-phenyl-oxazol-4-yl)-ethoxy]-naphthalen-1-yloxy}-propionic acid], the change in vivo at 30 mg/kg is 94% and the inhibition in vivo at 30 mg/kg is 29.9%.

Consider `Cc1oc(-c2ccc(OC3CCCCC3)cc2)nc1CCOc1ccc(OC(C)(C)C(=O)O)cc1` [Example 21, 2-(4-{2-[2-(4-Cyclohexyloxy-phenyl)-5-methyl-oxazol-4-yl]-ethoxy}-phenoxy)-2-methyl-propionic acid], for which the change in vivo at 30 mg/kg came to 9%.

With `CCCCc1cc(OC(C)(C)C(=O)O)ccc1OCCc1nc(-c2ccccc2)oc1C` [Example 31F, 2-{3-Butyl-4-[2-(5-methyl-2-phenyloxazol-4-yl)ethoxy]phenoxy}-2-methylpropionic acid], the change in vivo at 30 mg/kg was found to be 79% and the inhibition in vivo at 30 mg/kg worked out at 35.7%.

Compound `Cc1oc(-c2cccc(CCc3ccccc3)c2)nc1CCOc1ccc(OC(C)(C)C(=O)O)cc1` [Example 12A, 2-Methyl-2-(4-{2-[5-methyl-2-(3-phenethylphenyl)oxazol-4-yl]ethoxy}phenoxy)-propionic acid] had a change in vivo at 30 mg/kg of 47%.

Turning to `CCCc1cc(OC(C)(C)C(=O)O)ccc1OCCc1nc(-c2ccccc2)oc1C` [Example 27A, 2-Methyl-2-{4-[2-(5-methyl-2-phenyloxazol-4-yl)ethoxy]-3-propylphenoxy}propionic acid], the change in vivo at 30 mg/kg came to 52% and the inhibition in vivo at 30 mg/kg was 29.5%.

For `CCc1cc(OCCc2nc(-c3ccccc3)oc2C)ccc1OC(C)(C)C(=O)O` [Example 30A, 2-{2-Ethyl-4-[2-(5-methyl-2-phenyloxazol-4-yl)ethoxy]phenoxy}2-methylpropionic acid], the change in vivo at 30 mg/kg amounted to 93% and the inhibition in vivo at 30 mg/kg was 51.8%.
